Test results: the NIST ThermoML archive (doi:10.1016/j.jct.2008.10.008)
± gives the expanded uncertainty stated by the source.

Assays:
[1] = for vapor or sublimation pressure: Inclined piston gauge
[2] = Molar enthalpy of transition or fusion
[3] = molar heat capacity at saturation pressure; details: Crystal 2

CC(C)(C)c1ccc(C(C)(C)C)cc1 [1,4-bis(1,1-dimethylethyl)benzene]
[1]
Details | Triple point temperature [K] | vapor or sublimation pressure [kPa]
319.99 K, Crystal 2 | – | 0.0214 ± 0.001
329.99 K, Crystal 2 | – | 0.0543 ± 0.0011
339.98 K, Crystal 2 | – | 0.1315 ± 0.0012
349.98 K, Crystal 2 | – | 0.2996 ± 0.0013
354.98 K, Liquid | – | 0.4031 ± 0.0015
359.98 K, Liquid | – | 0.5294 ± 0.0017
369.98 K, Liquid | – | 0.8897 ± 0.0021
379.97 K, Liquid | – | 1.445 ± 0.0028
387.02 K, Liquid | – | 1.996 ± 0.0034
389.97 K, Liquid | – | 2.276 ± 0.0039
394.97 K, Liquid | – | 2.825 ± 0.0044
Crystal, Adiabatic calorimetry | 350.78 ± 0.04 | –

Details | Molar enthalpy of transition or fusion [kcal/mol] | Triple point temperature [K] | molar heat capacity [J/K/mol]
[1], Crystal 2 | – | 350.73 ± 0.01 | –
[2], Crystal 1 | 1.9627 ± 0.0012 | – | –
[2], Crystal 2 | 3.4321 ± 0.00239 | – | –
[3], 5 K | – | – | 0.22 ± 0.008
[3], 5.533 K | – | – | 0.3 ± 0.008
[3], 6.588 K | – | – | 0.58 ± 0.008
[3], 7.503 K | – | – | 0.948 ± 0.02
[3], 8.461 K | – | – | 1.45 ± 0.02
[3], 9.448 K | – | – | 2.15 ± 0.02
[3], 10 K | – | – | 2.66 ± 0.03
[3], 10.47 K | – | – | 3.13 ± 0.02
[3], 11.6 K | – | – | 4.28 ± 0.03
[3], 12.86 K | – | – | 5.92 ± 0.04
[3], 14.25 K | – | – | 7.97 ± 0.04
[3], 15.79 K | – | – | 10.43 ± 0.05
[3], 17.5 K | – | – | 13.43 ± 0.06
[3], 19.42 K | – | – | 16.89 ± 0.07
[3], 20 K | – | – | 17.93 ± 0.07
[3], 21.58 K | – | – | 20.82 ± 0.07
[3], 24 K | – | – | 25.18 ± 0.07
[3], 26.71 K | – | – | 29.9 ± 0.07
[3], 29.7 K | – | – | 34.78 ± 0.07
[3], 30 K | – | – | 35.25 ± 0.07
[3], 33.02 K | – | – | 39.81 ± 0.07
[3], 36.72 K | – | – | 44.96 ± 0.07
[3], 40 K | – | – | 49.12 ± 0.07
[3], 40.81 K | – | – | 50.11 ± 0.07
[3], 45.31 K | – | – | 55.45 ± 0.083
[3], 50 K | – | – | 60.83 ± 0.083
[3], 50.28 K | – | – | 61.18 ± 0.083
[3], 53.35 K | – | – | 64.41 ± 0.083
[3], 55.8 K | – | – | 67 ± 0.091
[3], 58.24 K | – | – | 69.81 ± 0.091
[3], 60 K | – | – | 71.59 ± 0.091
[3], 63.85 K | – | – | 75.62 ± 0.1
[3], 70 K | – | – | 82.39 ± 0.11
[3], 70.16 K | – | – | 82.56 ± 0.11
[3], 77.05 K | – | – | 90.04 ± 0.12
[3], 80 K | – | – | 93.26 ± 0.12
[3], 84.6 K | – | – | 98.29 ± 0.12
[3], 87.33 K | – | – | 101.34 ± 0.12
[3], 90 K | – | – | 104.26 ± 0.15
[3], 92.81 K | – | – | 107.36 ± 0.16
[3], 95.36 K | – | – | 110.2 ± 0.16
[3], 100 K | – | – | 115.33 ± 0.16
[3], 101.84 K | – | – | 117.33 ± 0.16
[3], 104.42 K | – | – | 120.11 ± 0.16
[3], 113.87 K | – | – | 130.45 ± 0.17
[3], 120 K | – | – | 137.01 ± 0.17
[3], 124.55 K | – | – | 141.81 ± 0.17
[3], 136.29 K | – | – | 154.01 ± 0.17
